From US20110319340A1, “METHODS FOR TREATING CANCER” (The Board of Regents, The University of Texas System, priority 2008, published 2011)

Assays:
Assay type in all cases: cell-based
[1] = tested on: bovine aortic endothelial cells; assay: Binding of KML4A colon cancer cells to bovine aortic endothelial cell monolayers; details: TNF alpha 50 ng/ml for 24 hours; binding after 30 minutes
Protocol: In this experiment, bovine aortic endothelial cells (BAEC; Cambrex BioScience; Walkersville, Md.) were plated in 24-well plastic tissue culture plates (BD Falcon™) at a density of 35,000 cells per cm^2 and cultured in endothelial cell basal medium (EBM) with 2% fetal bovine serum (FBS) and growth factors (SingleQuots™, Clonetics, San Diego, Calif.) in 5% CO2 at 37° C. for three days. BAEC monolayer cultures were then pretreated with saline (Control) or TP508 (TP) and then treated with saline or TNF alpha (TNF, 50 ng/ml) for 24 hours. KML4A cells were labeled with fluorescent CytoTracker™ as described in Example 1 above and added to the BAEC monolayers in EBM medium complete with fetal bovine serum and SingleQuot growth factor supplements (30,000 cells per well). After thirty (30) minutes, the cell monlayers were rinsed two times to remove unbound KML4A cells and the monolayers were solubilized using 200 μl of Cell Solubilizing Solution (Cell Biolabs, Inc.). Fluorescence of the solubilized KML4A that had bound to the endothelial cells was measured by transferring aliquots of the solubilized monolayers to 96-well black plates and reading them in a SyQuest BioLabs Fluorescent Plate Reader (480 nm/520 nm). Data is expressed as Relative Fluorescence Units.

[2] = tested on: melanoma cell adhesion molecule (MCAM); assay: Gene array analysis of MCAM expression in human coronary artery endothelial cells; details: TNF alpha 5 ng/ml, 6 hours
Protocol: (§1) Human coronary artery endothelial cells (Cambrex BioScience; Walkersville, Md.) were split into T-75 flasks (BD Falcon) and cultured in endothelial cell basal medium (EBM) with 2% fetal bovine serum (FBS) and growth factors (SingleQuotsTM, Clonetics, San Diego, Calif.) in 5% CO2 at 37° C. […] After 6 hours of incubation, total RNA was isolated using RNAqueous kits (Ambion, Austin, Tex.) as described by the manufacturer. mRNA samples were reverse-transcribed using Taqman Reverse Transcription Reagents Kits (Applied Biosystems, Inc.) and analyzed by gene array analysis using […] plus 2 chip sets (Affimetrix). All procedures and analysis of gene array data were performed in the UTMB Molecular Genomics and MicroArray Core Facility.

[3] = tested on: metastasis associated in colon cancer 1 (MACC1); assay: Gene array analysis of MACC1 mRNA in human coronary artery endothelial cells; details: TNF alpha 5 ng/ml, 6 hours
Protocol: as §1

[4] = tested on: bone morphogenetic protein 9 (BMP9); assay: Gene array analysis of BMP9 expression in human coronary artery endothelial cells; details: TP508 50 μg/ml or TNF alpha 5 ng/ml, 6 hours
Protocol: Human coronary artery endothelial cells (Cambrex BioScience; Walkersville, Md.) were split into T-75 flasks (BD Falcon) and cultured in endothelial cell basal medium (EBM) with 2% fetal bovine serum (FBS) and growth factors (SingleQuotsTM, Clonetics, San Diego, Calif.) in 5% CO2 at 37° C. […] All procedures and analysis of gene array data were performed in the UTMB Molecular Genomics and MicroArray Core Facility.

[5] = tested on: snail homolog 3 (SNAI3); assay: Gene array analysis of SNAI3 expression in human coronary artery endothelial cells; details: TNF alpha 5 ng/ml, 6 hours
Protocol: as §1, with “(Affimetrix).” for “(Affimetrix). All procedures and analysis of gene array data were performed in the UTMB Molecular Genomics and MicroArray Core Facility.”

[6] = tested on: human microvascular endothelial cells; assay: Phase contrast micrographs of human microvascular endothelial cells co-incubated with KML4A cells; details: after 22 hours; TP508 50 μg/ml 8 hours pretreatment; thrombin 2 U/ml or TNF alpha 5 ng/ml 16 hours
Protocol: Human microvascular endothelial cells (Cambrex BioScience; Walkersville, Md.) were plated on 48-well tissue culture plates (BD Falcon) 30,000 cells per well, and cultured in endothelial cell basal medium (EBM) with 2% fetal bovine serum (FBS) and growth factors (SingleQuots™, Clonetics, San Diego, Calif.) in 5% CO2 at 37° C. for three days. […] Photomicrographs were captured at various times after addition of KML4A cells using an inverted Leitz Diavert microscope (original magnification, 200×) equipped with Spot Idea™ digital camera (Diagnostic Instruments, Inc.). Micrographs were taken at the center of each well to avoid any differences in original cell density.

[7] = tested on: human umbilical vein endothelial cells; assay: Transendothelial migration of KML4A tumor cells through human umbilical vein endothelial cell monolayer; details: thrombin 2 U/ml for 24 hours; migration after 18 hr
From the text: In this experiment, as in Example 1, KML4A tumor cells derived from a human colon cancer and selected for repeated metastasis to the liver (Morikawa et al., supra) were harvested from established cultures and labeled with fluorescent CytoTracker™ (Cell Biolabs, inc.) and re-established as a uniform cell suspension. Human endothelial cell monolayers were established in transmembrane inserts supplied by Cell Biolabs, Inc., by plating 50,000 human umbilical vein endothelial cells (Cambrex BioScience; Walkersville, Md.) per insert and culturing them in endothelial cell basal medium (EBM) with 2% fetal bovine serum (FBS) and growth factors (SingleQuots™, Clonetics, San Diego, Calif.) in 5% CO2 at 37° C. for three days. […] Fluorescently labeled KML4A tumor cells (35,000 cells per insert in serum-free medium containing 1% bovine serum albumin) were then added to the culture inserts and the inserts placed into wells of a 24-well tissue culture plate (BD Falcon) with 0.5 ml of growth medium containing 10% fetal bovine serum to act as a chemoatractant for the tumor cells. The number of cells migrating through the filter inserts to the filter bottom was determined 18 hr later by measuring the fluorescence of material recovered from the filter bottom using a SyQuest BioLabs Fluorescent Plate Reader (480 nm/529 nm). Data is expressed as Relative Fluorescence Units.

[8] = tested on: human umbilical vein endothelial cells; assay: Phase contrast micrographs of human umbilical vein endothelial cells co-incubated with KML4A cells; details: after 22 hours; thrombin 2 U/ml 16 hours, with or without TP508 50 μg/ml 8 hours pretreatment
From the text: Photomicrographs were captured at various times after addition of KML4A cells using an inverted Leitz Diavert microscope (original magnification, 200×) equipped with Spot Idea™ digital camera (Diagnostic Instruments, Inc.). Micrographs were taken at the center of each well to avoid any differences in original cell density.

Substance	increase of binding of KML4A cells [1]	effect on endothelial cell expression of MCAM [2]	effect on endothelial cell expression of MACC1 mRNA [3]	effect on expression of BMP9 [4]	effect on endothelial cell expression of SNAI3 [5]	endothelial cell damage and loss after co-incubation with KML4A cells [6]	effect on KML4A transedothelial migration [7]	endothelial cells remaining after co-incubation with KML4A cells [8]
TNF alpha	approximately 8 fold	increases endothelial cell expression of MCAM	increases endothelial cell expression of MACC1	does not	increases endothelial cell expression of SNAI3	damaged and released from the culture substrate		
Thrombin						damaged and released from the culture substrate	increased transedothelial migration	few if any remaining endothelial cells
